Data on three compounds can be found in ChEMBL document CHEMBL1944549, “Small molecule inhibitors of BRAF in clinical trials” (Bioorg Med Chem Lett, 2012).

A short description of data set [1]: Antitumor activity against human melanoma cells harboring patient assessed as increase in survival of patient at 1000 mg/kg, iv administered 3 times a week. It counts as functional. The settings on record: Melanoma cell.
The subject of data set [2] is HCT-116. Description: Growth inhibition of human HCT116 cells expressing wild-type B-Raf and K-Ras2 G13D mutant after 72 hrs by WST-1 assay. It counts as functional, cell-based. Conditions: HCT-116, 72 h.
Data set [3] deals with SK-MEL-2. Description: Growth inhibition of human SK-MEL-2 cells expressing wild-type B-Raf and N-Ras2 Q61R mutant after 72 hrs by WST-1 assay. In kind it is functional, cell-based. The settings on record: SK-MEL-2, 72 h. (In general: Formazan colour is commonly taken as a measure of viable cells.)
Data set [4] in a line: Antitumor activity against human melanoma cells assessed as increase in survival of patient at […], po administered BID. In kind it is functional. The settings on record: Melanoma cell.
Data set [5] in a line: Toxicity in po dosed cancer patient bearing B-Raf V600E mutation administered BID. The settings on record: human, in vivo. In kind it is organism-based.

The term EC50 denotes the midpoint of the concentration-response curve. A high value points to a need for much substance.

For `CC(C)(C)c1nc(-c2cccc(NS(=O)(=O)c3c(F)cccc3F)c2F)c(-c2ccnc(N)n2)s1` [DABRAFENIB], the survival at 1000 mg/kg in data set [1] was 64%. As for `CN(C)CCOc1ccc(-c2nc(-c3ccncc3)c(-c3ccc4c(c3)CC/C4=N\O)[nH]2)cc1` [SB590885], the EC50 in data set [2] and in data set [3] was 1100 nM each time. Regarding `CCCS(=O)(=O)Nc1ccc(F)c(C(=O)c2c[nH]c3ncc(-c4ccc(Cl)cc4)cc23)c1F` [VEMURAFENIB], the survival in data set [4] stood at 84%. In data set [5], this compound registered an MTD of 960 mg.
